# ± gives the expanded uncertainty stated by the source.
# Conditions: 298.15 K; Liquid; Gas chromatography
row,vapor or sublimation pressure [kPa],Structure (SMILES)
1,1.576 ± 0.33,"C[C@@H]1CCC[C@H](C)N1 [2,6-lupetidine, cis-]"
2,0.00054 ± 0.00011,CCCCCCCNCCCCCCC [N-heptyl-1-heptanamine]
3,0.383 ± 0.12,CCCCNCCCC [dibutylamine]
4,5.6e-05 ± 1.2e-05,CCCCCCCCNCCCCCCCC [dioctylamine]
5,0.041 ± 0.009,CCCCCNCCCCC [dipentylamine]

row,Structure (SMILES),vapor or sublimation pressure [kPa]
1,c1ccc(CC2CCNCC2)cc1 [4-benzylpiperidine],0.0015 ± 0.0003
2,CN[C@@H](C)Cc1ccccc1 [(S)-N-methyl-1-phenylpropan-2-amine],0.0375 ± 0.008
3,C1CCNCC1 [piperidine],3.52 ± 0.75

# Source: the NIST ThermoML archive (doi:10.1016/j.jct.2013.08.005)
